# Experimental data taken from patent US20110064669A1, “USE OF GALANIN IN A METHOD OF TREATING NEURODEGENERATIVE DISEASES OR CONDITIONS” (HOWARD FLOREY INSTITUTE OF EXPERIMENTAL PHYSIOLOGY AND …, priority 2007, published 2011).
# Entries after “also recorded” stand apart in the source; their conditions may differ. No end group written: not given here.
# Key:
# [1] = system: oligodendrocyte progenitors or mature oligodendrocytes; experiment: Real-time PCR confirmation of LIF-regulated genes in oligodendrocyte progenitors and mature oligodendrocytes; type: cell-based, rat; details: LIF for 5 or 24 hours
# Experimental: For each of these six regulated genes, independent confirmation was conducted by real-time PCR. Either dividing oligodendrocyte progenitors or mature oligodendrocytes (as above) were exposed to LIF for either 5 or 24 hours, and measured gene induction against baseline (independent baseline cultures for each comparison). […] FIG. 10 illustrates typical results for secretogranin 2 and galanin.
# OC = experiment: Galanin immunocytochemistry of OC cultured in insulin +/- LIF; type: cell-based, rat; details: LIF-treated versus untreated OC, 48 hours
# Experimental: (§1) Translation of regulated cytokine and neuropeptide mRNA species into peptides/proteins was confirmed. Mature oligodendrocytes (as above) were plated in 10 cm dishes in SATO plus insulin and added LIF (100 ng/ml) to half the dishes for 48 hours. […] LIF-dependent galanin production in concentrated media from the OC cell line CG4 (FIG. 11) was confirmed. […] All Western blots were performed in triplicate from independent experiments. The LIF-dependent induction of a secretory phenotype in OC was confirmed by galanin immunocytochemistry of OC cultured in insulin +/− LIF for 48 hours (FIG. 13).
# cuprizone demyelination = details: exogenous LIF, wild-type litter mates; cited from earlier work
# [2] = system: cultured primary rat astrocytes or an n-mye immortalized astrocytic cell line; experiment: Galanin production in response to LIF in astrocytes; type: cell-based
# [3] = system: cultured primary oligodendrocytes; experiment: Affymetrix gene chip analysis of LIF-induced mRNA in cultured primary oligodendrocytes; type: cell-based, rat; details: 8 hours of LIF exposure, versus NT3, insulin or Sato only
# Experimental: In order to assess mRNA induction promoted by LIF signaling in oligodendrocytes, an Affymetrix array analysis was conducted of cultured primary oligodendrocytes. A2B5 positive, O1 negative oligodendrocyte progenitor cells were isolated by sequential immunopanning from P6 rat optic nerves. After expansion in culture (2 passages, 11 days) in Sato medium in the presence of insulin, platelet-derived growth factor (PDGF) and neurotrophin-3 (NT3) (no CNTF or LIF), the cells were matured by 48 hours of PDGF withdrawal. The NT3 was also withdrawn for this time-period but insulin was maintained. In order to determine gene expression profiles induced by various cytokines, the matured cells were then exposed to one of four conditions for 8 hours: Sato alone, Sato plus insulin, Sato plus LIF, Sato plus NT3. Subsequently, the cells were harvested, mRNA isolated and processed for Affymetrix gene chip hybridization (Rat 230 2.0). The experiments were conducted as independent triplicates. […] The 965 genes identified were subjected to cluster analysis. Distinct clusters of genes were regulated by insulin and LIF (FIG. 9) but not NT-3.
# mature oligodendrocytes = experiment: Western blot of galanin in concentrated media of mature oligodendrocytes; type: cell-based, rat; details: LIF 100 ng/ml, 48 hours, SATO plus insulin
# Experimental: as §1
# EAE = details: cited from earlier work
# [4] = system: post-mitotic OC (primary rat OPC matured by PDGF withdrawal); experiment: Oligodendrocyte survival assay (calcein / ethidium homodimer live-dead count); type: cell-based
# Experimental: Whether or not galanin itself is a survival factor for oligodendrocytes in vitro was determined. Primary rat OPC in culture were matured for 48 hours by PDGF withdrawal in the presence of insulin, passaged into poly-1-lysine coated 24 well-plates at a density of 200 cells/well in Sato medium alone or Sato medium supplemented with various concentrations of recombinant rat galanin (Peninsula Biosciences).
# Twenty wells/condition were counted in each survival assay and results were verified in four independent experiments using separate batches of primary cells. All counts were performed by an investigator blinded to the experimental condition.
Substance,gene induction against baseline at the RNA level (six genes incl. secretogranin 2 and galanin) [1],galanin staining of OC (OC),severity of demyelination (cuprizone demyelination),induction of galanin production [2],"regulation of genes (secretogranin II, cytokines/neuropeptides incl. galanin) on gene chip [3]",galanin production in concentrated media (mature oligodendrocytes),"reduction in density of oligodendrocytes within the spinal cord in established EAE (EAE; MBP-lacZ mice, LIF administration)",EAE severity (EAE; recombinant LIF administration),"OC survival in vitro ([4]; 1 nM galanin in Sato medium, versus Sato alone (nil))","OC survival, galanin plus LIF versus galanin alone (synergy) ([4]; Sato medium)","OC survival in vitro ([4]; higher galanin concentrations (other than 1 nM), versus baseline (nil))"
leukemia inhibitory factor [LIF],confirmed to be regulated,intense polar galanin staining,reduce the severity of demyelination,not observed,significantly regulated,Induction of galanin production was observed,fully rescued this phenotype,reduces EAE severity,,,
"galanin (GWTLNSAGYLLGPHAIDNHRSFSDKHGLT; ends and bridges not checked; UniProt P10683 33-61, looked up) [29 amino acid neuropeptide; recombinant rat galanin (Peninsula Biosciences) used in the survival assay]",,,,,,,,,highly significant survival effect; also recorded: increased,not synergistic with LIF,abolished; also recorded: No other galanin concentration is significantly different from baseline
